Data from patent US20090227619A1, “Harmine derivatives, intermediates used in their preparations, preparation processes and use therefo” (priority 2003, published 2009).
Like-named read-outs stand apart in the source and are kept apart here. One block for each compound: values may come before it.

Assays:
NIH3T3 = experiment: In vitro cytotoxicity, IC50 by MTT method, NIH3T3; format: cell-based
Experimental: (§1) Culture medium powder RPMI1640 was dissolved in a proper amount of tri-distilled water according to the instruction of the product. […] It was the basic culture solution. The complete culture solution was added with FBS having a final concentration of 10%, 100 U/ml penicillin and 100 µg/ml streptomycin. The solution was fully stirred by a magnetic blender, and the pH of the solution was adjusted to 6.8-7.0. The volume was kept constant. After being filtered and disinfected, the solution was kept into several containers which were sealed and stored at 4° C.
(§2) The cells were placed in a culture dish followed by the addition of complete culture liquid RPMI1640 and then cultured in a incubator comprising 5% CO2 at 37° C. In the exponential growth phase, the cells grew vigorously. If the culture liquid became yellow, the liquid should be replaced instantly.
(§3) The cells, at a concentration of 10^5/ml, were inoculated at a 96-pore culture plate. In each pore, 100 μl cells were inoculated. The cells were placed in a CO2 incubator until the cells were in the logarithmic growth phase. The samples to be tested were added according to the preset concentration gradient. For each gradient, the test was conducted at least three times. An equivalent amount of solvent for dissolving the samples was added in the control group. After 48 h of culture, each pore was added 20 μl MTT (5 mg/ml). The cells were cultured at 37° C. for 4 h. After the supernatant was carefully removed, 100 μl DMSO was added in each pore. The plate was agitated for about 10 minutes such that the precipitates were dissolved. After that, OD value was identified with a Microplate Reader at the wavelength of 490 nm. The survival rate of the cells at various concentrations was calculated according to the following formula:
(§4) Survival rate %=average OD value of the sample group/average OD value of the control group×100%
(§5) Plots of log survival rate of the cells vs. concentration of the medicament were constructed, and the IC50 value of each sample was calculated according to graphing methods.

BGC-823 = experiment: In vitro cytotoxicity, IC50 by MTT method, BGC-823; format: cell-based
Experimental: as §1, §2, §3, §4, §5

Hela = experiment: In vitro cytotoxicity, IC50 by MTT method, Hela; format: cell-based
Experimental: as §1, §2, §3, §4, §5

HepG2 = experiment: In vitro cytotoxicity, IC50 by MTT method, HepG2; format: cell-based, human
Experimental: as §1, §2, §3, §4, §5

Bel-7402 = experiment: In vitro cytotoxicity, IC50 by MTT method, Bel-7402; format: cell-based
Experimental: as §1, §2, §3, §4, §5

Lovo = experiment: In vitro cytotoxicity, IC50 by MTT method, Lovo; format: cell-based
Experimental: as §1, §2, §3, §4, §5

PLA-801 = experiment: In vitro cytotoxicity, IC50 by MTT method, PLA-801; format: cell-based
Experimental: as §1, §2, §3, §4, §5

Lewis lung cancer = details: Lewis lung cancer; for Body weight of the animals, end, First time / Body weight of the animals, end, Second time: ip × 10qd;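 on all read-outs here: mice implanted subcutaneously in the axilla with Lewis lung tumor cells, treated starting the following day, killed roughly three weeks after implantation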
S180 sarcoma = details: S180 sarcoma; for Body weight of the animals, beginning, First time / Body weight of the animals, end, First time / Inhibition rate, First time / Weight of the tumor X ± SD, First time / Body weight of the animals, beginning, Second time / Body weight of the animals, end, Second time / Inhibition rate, Second time: ip × 10qd
[1] = PLA-801 cell strain, read-out: IC50 PLA-801
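Wherever LD50 is given: acute toxicity in Kunming mice grouped by sex, one intraperitoneal dose at five graded levels in Tween-80 plus 0.5% CMC-Na, deaths monitored over two weeks.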

Experimental for Kunming mice: Five grades of dosages for each sample according to the results of the preliminary test, each dosage being 0.8 larger than the previous one
During the experiment, each sample was added a small amount of Tween-80 to facilitate dissolution after the sample was weighed, and then 0.5% CMC-Na solution was gradually added to achieve the desired concentration. The experimental volume was 0.5 ml/20 g mouse.
Single injection via intraperitoneal (i.p.) to different groups mice.
Kunming mice were divided into different groups randomly according to their sex. The medicament was intraperitoneally administered to each group of mice according to the dosage setting. After the administration of the medicaments, mice were observed continuously for the first 2 h for any gross behavioral changes and deaths. Dead animals were dissected and examined for any possible organ damage. […] Conditions of animals died within two week were recorded. After two weeks, all survived animals were sacrificed and checked macroscopically for possible damage to the heart, liver, kidneys and so on. Viscera that had substantive pathological changes were pathologically examined.

melting point: 233 to 236 °C
Compound: CCNC1(C(N)=O)C=C2C(=Nc3ccccc32)C=N1 (stereo not drawn) [Compound 19, 3-ethylamino-β-carboline-3-formamide]
IC50 (NIH3T3; Mus musculus, NIH3T3, MTT, read-out: IC50): 200 µM | IC50 (BGC-823; Homo sapiens, BGC-823, BGC823, MTT, read-out: IC50): 80 µM | IC50 (Hela; Homo sapiens, Hela, MTT, read-out: IC50): 90 µM | IC50 (HepG2; Homo sapiens, HepG2, MTT, read-out: IC50): 80 µM | IC50 (Bel-7402; Homo sapiens, Bel-7402, BeI7402, MTT, read-out: IC50): 160 µM | IC50 (Lovo; Homo sapiens, Lovo, MTT, read-out: IC50): 100 µM | IC50 (PLA-801; PLA-801, MTT, read-out: IC50): 140 µM

Compound: CCOC(=O)c1cc2c3ccccc3n(CCCc3ccccc3)c2cn1 [Compound 45, ethyl 9-phenylpropyl-β-carboline-3-carboxylate]
melting point: 140 to 142 °C | IC50 (NIH3T3; Mus musculus, NIH3T3 cell strain, read-out: IC50 NIH3T3): > 3000 µM | IC50 (BGC-823; Homo sapiens, BGC-823, BGC823 cell strain, read-out: IC50 BGC823): > 3000 µM | IC50 (Hela; Homo sapiens, Hela cell strain, read-out: IC50 Hela): > 3000 µM | IC50 (HepG2; Homo sapiens, HepG2 cell strain, read-out: IC50 HepG2): > 3000 µM | IC50 (Bel-7402; Homo sapiens, Bel-7402, Bel7402 cell strain, read-out: IC50 Bel7402): 387 µM | IC50 (Lovo; Homo sapiens, Lovo cell strain, read-out: IC50 Lovo): > 3000 µM | IC50 (PLA-801; [1]): > 3000 µM

Compound: 2,9-dibenzyl-3-ethoxycarbonyl-β-carbolinium bromate [Compound 86]
IC50 (NIH3T3; NIH3T3 cell strain, read-out: IC50 NIH3T3): 20 µM | IC50 (BGC-823; BGC823 cell strain, read-out: IC50 BGC823): 40 µM | IC50 (Hela; Hela cell strain, read-out: IC50 Hela): 30 µM | Body weight of the animals, end, First time (Lewis lung cancer; Dosage 10 (mg/ml)): 24.5 g | Body weight of the animals, end, Second time (Lewis lung cancer; Dosage 10 (mg/ml)): 25.1 g | Body weight of the animals, beginning, First time (Lewis lung cancer; Dosage 10, ip × 10qd): 20.2 g | Inhibition rate, First time (Lewis lung cancer; Dosage 10, ip × 10qd): 34.98% | Weight of the tumor X ± SD, First time (Lewis lung cancer; Dosage 10, ip × 10qd): 1.58 ± 0.11 g | Body weight of the animals, beginning, Second time (Lewis lung cancer; Dosage 10, ip × 10qd): 19.1 g | Inhibition rate, Second time (Lewis lung cancer; Dosage 10, ip × 10qd): 37.20% | Weight of the tumor X ± SD, Second time (Lewis lung cancer; Dosage 10, ip × 10qd): 1.84 ± 0.17 g | Body weight of the animals, end, First time (Lewis lung cancer; Dosage 20 (mg/ml)): 25.2 g | Body weight of the animals, end, Second time (Lewis lung cancer; Dosage 20 (mg/ml)): 23.9 g | Body weight of the animals, beginning, First time (Lewis lung cancer; Dosage 20, ip × 10qd): 20.0 g | Inhibition rate, First time (Lewis lung cancer; Dosage 20, ip × 10qd): 41.56% | Weight of the tumor X ± SD, First time (Lewis lung cancer; Dosage 20, ip × 10qd): 1.42 ± 0.11 g | Body weight of the animals, beginning, Second time (Lewis lung cancer; Dosage 20, ip × 10qd): 18.7 g | Inhibition rate, Second time (Lewis lung cancer; Dosage 20, ip × 10qd): 45.05% | Weight of the tumor X ± SD, Second time (Lewis lung cancer; Dosage 20, ip × 10qd): 1.61 ± 0.17 g | Inhibition rate (%) Lewis cancer (Lewis lung cancer; comparison table 43, in vivo): 41.56% | IC50 (HepG2; HepG2 cell strain, read-out: IC50 HepG2): 40 µM | Body weight of the animals, beginning, First time (S180 sarcoma; Dosage 10 (mg/ml)): 19.3 g | Body weight of the animals, end, First time (S180 sarcoma; Dosage 10 (mg/ml)): 24.5 g | Inhibition rate, First time (S180 sarcoma; Dosage 10 (mg/ml)): 31.09% | Weight of the tumor X ± SD, First time (S180 sarcoma; Dosage 10 (mg/ml)): 1.84 ± 0.16 g | Body weight of the animals, beginning, Second time (S180 sarcoma; Dosage 10 (mg/ml)): 18.7 g | Body weight of the animals, end, Second time (S180 sarcoma; Dosage 10 (mg/ml)): 24.9 g | Inhibition rate, Second time (S180 sarcoma; Dosage 10 (mg/ml)): 28.89% | Weight of the tumor X ± SD, Second time (S180 sarcoma; Dosage 10, ip × 10qd): 1.92 ± 0.20 g | Body weight of the animals, beginning, First time (S180 sarcoma; Dosage 20 (mg/ml)): 19.0 g | Body weight of the animals, end, First time (S180 sarcoma; Dosage 20 (mg/ml)): 23.7 g | Inhibition rate, First time (S180 sarcoma; Dosage 20 (mg/ml)): 38.95% | Weight of the tumor X ± SD, First time (S180 sarcoma; Dosage 20 (mg/ml)): 1.63 ± 0.26 g | Body weight of the animals, beginning, Second time (S180 sarcoma; Dosage 20 (mg/ml)): 18.9 g | Body weight of the animals, end, Second time (S180 sarcoma; Dosage 20 (mg/ml)): 24.4 g | Inhibition rate, Second time (S180 sarcoma; Dosage 20 (mg/ml)): 41.11% | Weight of the tumor X ± SD, Second time (S180 sarcoma; Dosage 20, ip × 10qd): 1.59 ± 0.17 g | Inhibition rate (%) S180 sarcomata (S180 sarcoma; comparison table 43, in vivo): 41.11% | IC50 (Bel-7402; Bel7402 cell strain, read-out: IC50 Bel7402): 50 µM | IC50 (Lovo; Lovo cell strain, read-out: IC50 Lovo): 20 µM | IC50 (PLA-801; [1]): 10 µM | LD50 (Kunming mice; 50% male 50% female mice, single i.p.): 65.7 mg/kg | LD50 (Kunming mice; mouse, in vivo, ip): 58.2 to 74.1 mg/kg | LD50 (Kunming mice; summary Table 34, present tests, mice i.p.): 65.7
